The values that follow come from patent US20220211692A1, “Modulators of the Cystic Fibrosis Transmembrane Conductance Regulator Protein and Methods of Use” (AbbVie Global Enterprises Ltd., priority 2021, published 2022).

One assay addresses T1, F508del/F508del CFTR (Homo sapiens, UniProt P13569, DEL508-508).
T1 construct: cells isolated from CF patients with the homozygous mutation; endogenous in cells; host or cells: primary human bronchial epithelial (hBE) cells from CF patients homozygous for F508del
Description: Trans-Epithelial Current Clamp (TECC) assay using primary human bronchial epithelial cells. Particulars: for Emax (% Dual): maximum percent activity relative to positive control (co-corrector 0.15 μM + potentiator 0.45 μM = 100%); for EC50: primary hBE cells F508del/F508del, test corrector with co-corrector and potentiator, 18-24 hours, equivalent CFTR current. The assay is classed as cell-based. The text has this:
A cell-based assay was developed using the primary human bronchial epithelial cells (hBE cells) with F508del/F508del CFTR and other mutations.
Primary human bronchial epithelial (hBE) cells from CFTR patients with homozygous F508del/F508del mutation were expanded from 1×10^6 to 250×10^6 cells (Neuberger, T et al., 2011, Methods Mol Biol 741:39-54). For this purpose, cells isolated from CF patients with the homozygous mutation, procured from the CF center tissue procurement and cell culture core at the Marsico Lung Institute at UNC (Randell), the Cystic Fibrosis translational research center at McGill University (University), and Rosalind Franklin University Medical School (RFUMS) were seeded onto 24 well Corning (Cat #3378) filter plates that were coated with 3T3 conditioned media and grown at an air-liquid interface for 35 days using an Ultroser® G supplemented differentiation media. All the primary human bronchial epithelial cells were collected in accordance with institutional review board approval protocols. Apical surface mucus was removed 72 hours before the experiment by incubating the apical surface of the cells for 30 minutes with 3 mM dithiothreitol (DTT) prepared in Dulbecco's phosphate buffered saline (DPBS) with Ca^2+ and Mg^2+. This was followed with aspiration of the mucus from the apical surface along with DPBS. The apical surface was re-washed with phosphate buffered saline (PBS) incubated for 30 minutes followed with aspiration. These hBE cells were then incubated with the desired concentrations of the test C2 corrector compounds along with co-corrector, 4-[(2R,4R)-4-({[1-(2,2-difluoro-1,3-benzodioxol-5-yl)cyclopropyl]carbonyl}amino)-7-(difluoromethoxy)-3,4-dihydro-2H-chromen-2-yl]benzoic acid and potentiator, (5-{3-amino-5-[4-(trifluoromethoxy)benzene-1-sulfonyl]pyridin-2-yl}-1,3,4-oxadiazol-2-yl)methanol, for 18-24 hours at 37° C., 5% CO2. The desired concentrations of the correctors and potentiator compounds were prepared from the 10 mM stocks in differentiation media and were always applied on the basolateral side of the epithelial cells. We also used an assay format where a fixed concentration of potentiator was added chronically along with the corrector compounds. This chronic treatment with the potentiator helped eliminate any interaction that might happen with CFTR modulators (correctors and potentiators) and thereby determined the true efficacy of the modulator combinations reflective of clinical relevance.
The assay uses a Transepithelial Current Clamp (TECC) (Vu, C B et al., 2017; J Med Chem 60:458-473) instrument that can measure the functionality of the mutated channel by measuring the equivalent CFTR current (IEQ) generated by the polarized primary epithelial cells. We used a TECC-24 with a 24-channel electrode manifold allowing for the simultaneous measurement of the transepithelial voltage, VT, and transepithelial resistance, RT, under current clamp conditions, from 24 filters using a 24 well Costar filter plate. The design of the filters in the 24 well filter plates was exactly the same as the design of an individual Transwell filter used in the classical Ussing Chamber with a surface area of 0.33 cm^2. Each measured VT values were corrected for the electrode offset potential measured using buffer alone in a separate plate, and each measured RT values were then corrected for the combined solution series and empty filter resistances. The corrected VT and RT values were then used to calculate the equivalent current, IEQ using Ohm's law (IEQ=VT/RT). The area under the curve (AUC) for the time period between the forskolin peak IEQ response and at the time of bumetanide addition was also calculated using a one-third trapezoid method, in addition to calculating the IEQ. The assay was run in a 24-well format and all 24-wells were measured at the same time point giving a higher throughput for this assay. […]

The next assay addresses T2, F508delCFTR (Homo sapiens, UniProt P13569, DEL508-508).
T2 construct: expressed in transfected cells; host or cells: CFBE41o- human lung derived epithelial cell line, doxycycline-induced expression
Kind of assay: Cell Surface Expression-Horse Radish Peroxidase (CSE-HRP) assay in CFBE41o-F508delCFTR-HRP cells. The format is cell-based. The conditions noted are these: for EC50: CFBE41o-F508delCFTR-HRP cells, 18-24 hours at 33° C.; for Maximum % activity (with co-corrector) / Emax: normalized to on-plate positive control; for Emax: read-out: Maximum % activity (without co-corrector). The procedure:
A cellular assay for measuring the F508delCFTR cell surface expression after correction with test compounds either without or with a co-corrector (2 μM of 3-[(2R,4R)-4-({[1-(2,2-difluoro-1,3-benzodioxol-5-yl)cyclopropyl]carbonyl}amino)-7-methoxy-3,4-dihydro-2H-chromen-2-yl]benzoic acid), was developed in human lung derived epithelial cell line (CFBE41o-) (Veit G et al, (2012) Mol Biol Cell. 23(21): 4188-4202). The development was achieved by expressing the F508delCFTR mutation along with a horseradish peroxidase (HRP) in the fourth exofacial loop, and then measuring the HRP activity using luminescence readout from these cells, CFBE41o-F508delCFTR-HIRP, that were incubated overnight with the test corrector compounds, either without or with the co-corrector. For this primary assay, the CFBE41o-F508delCFTR-HRP cells were plated in 384-well plates (Greiner Bio-one; Cat 781080) at 4,000 cells/well along with 0.5 μg/mL doxycycline to induce the F508delCFTR-HRP expression and further incubated at 37° C., […] for 68-72 hours. The test compounds were then added either without or with a co-corrector at the required concentrations and further incubated for 18-24 hours at 33° C. The highest concentration tested was 20 μM or 30 μM (GI-1 to GIII-36) with an 8-point concentration response curve using a 3-fold dilution in both the test compound without or with the co-corrector. Three replicate plates were run to determine one EC50. All plates contained negative controls (dimethyl sulfoxide, DMSO) and positive control (2 μM or 3 μM (GI-1 to GIII-36) of 3-[(2R,4R)-4-({[1-(2,2-difluoro-1,3-benzodioxol-5-yl)cyclopropyl]carbonyl}amino)-7-methoxy-3,4-dihydro-2H-chromen-2-yl]benzoic acid) as well as on-plate concentration response of the positive control. Post incubation, the plates were washed 5× times with Dulbecco's phosphate buffered saline (DPBS), followed by the addition of the HRP substrate, luminol (50 μL), and measuring the HRP activity using luminescence readout on EnVision® Multilabel Plate Reader (Perkin Elmer; product number 2104-0010). The raw counts from the experiment were analyzed using Accelrys® Assay Explorer v3.3.
Z′ greater than 0.5 was used as passing quality control criteria for the plates. The Z′ is defined as:
1−[3*SDPositive Control+3*SDNegative Control/Absolute(MeanPositive Control−MeanNegative Control)]
The % activity measured at each of the 8 test concentrations of the test compound added either without or with a co-corrector (2 μM or 3 μM (GI-1 to GIII-36) of 3-[(2R,4R)-4-({[1-(2,2-difluoro-1,3-benzodioxol-5-yl)cyclopropyl]carbonyl}amino)-7-methoxy-3,4-dihydro-2H-chromen-2-yl]benzoic acid) was normalized to the on-plate positive control using the following formulae:
% activity (Test compound without co-corrector)=[(test compound without co-corrector response−DMSO response)/(positive control response−DMSO response)]*100
% activity (Test compound with co-corrector)=[(test compound with co-corrector response−DMSO response)/(positive control response−DMSO response)]*100
The maximum % activity achieved for the test compound either without or with a co-corrector at any tested concentration is presented in Table 3 along with the respective EC50's calculated using the following general sigmoidal curve with variable Hill slope equation (described as Model 42 in the Accelrys® Assay Explorer v3.3 software):
General sigmoidal curve with concentration, response, top, bottom, EC50 and Hill slope. This model describes a sigmoidal curve with an adjustable baseline, a. The equation can be used to fit curves where response is either increasing or decreasing with respect to the independent variable, “x”.

Where [1] appears, read: with co-corrector 2 μM, read-out: EC50 (with co-corrector).
Setting [2] is: without co-corrector, read-out: EC50 (without co-corrector).

Where two headings read alike, the source gives them in different places.

T2 sequence (P13569 with tags, fused parts or gaps DEL508-508): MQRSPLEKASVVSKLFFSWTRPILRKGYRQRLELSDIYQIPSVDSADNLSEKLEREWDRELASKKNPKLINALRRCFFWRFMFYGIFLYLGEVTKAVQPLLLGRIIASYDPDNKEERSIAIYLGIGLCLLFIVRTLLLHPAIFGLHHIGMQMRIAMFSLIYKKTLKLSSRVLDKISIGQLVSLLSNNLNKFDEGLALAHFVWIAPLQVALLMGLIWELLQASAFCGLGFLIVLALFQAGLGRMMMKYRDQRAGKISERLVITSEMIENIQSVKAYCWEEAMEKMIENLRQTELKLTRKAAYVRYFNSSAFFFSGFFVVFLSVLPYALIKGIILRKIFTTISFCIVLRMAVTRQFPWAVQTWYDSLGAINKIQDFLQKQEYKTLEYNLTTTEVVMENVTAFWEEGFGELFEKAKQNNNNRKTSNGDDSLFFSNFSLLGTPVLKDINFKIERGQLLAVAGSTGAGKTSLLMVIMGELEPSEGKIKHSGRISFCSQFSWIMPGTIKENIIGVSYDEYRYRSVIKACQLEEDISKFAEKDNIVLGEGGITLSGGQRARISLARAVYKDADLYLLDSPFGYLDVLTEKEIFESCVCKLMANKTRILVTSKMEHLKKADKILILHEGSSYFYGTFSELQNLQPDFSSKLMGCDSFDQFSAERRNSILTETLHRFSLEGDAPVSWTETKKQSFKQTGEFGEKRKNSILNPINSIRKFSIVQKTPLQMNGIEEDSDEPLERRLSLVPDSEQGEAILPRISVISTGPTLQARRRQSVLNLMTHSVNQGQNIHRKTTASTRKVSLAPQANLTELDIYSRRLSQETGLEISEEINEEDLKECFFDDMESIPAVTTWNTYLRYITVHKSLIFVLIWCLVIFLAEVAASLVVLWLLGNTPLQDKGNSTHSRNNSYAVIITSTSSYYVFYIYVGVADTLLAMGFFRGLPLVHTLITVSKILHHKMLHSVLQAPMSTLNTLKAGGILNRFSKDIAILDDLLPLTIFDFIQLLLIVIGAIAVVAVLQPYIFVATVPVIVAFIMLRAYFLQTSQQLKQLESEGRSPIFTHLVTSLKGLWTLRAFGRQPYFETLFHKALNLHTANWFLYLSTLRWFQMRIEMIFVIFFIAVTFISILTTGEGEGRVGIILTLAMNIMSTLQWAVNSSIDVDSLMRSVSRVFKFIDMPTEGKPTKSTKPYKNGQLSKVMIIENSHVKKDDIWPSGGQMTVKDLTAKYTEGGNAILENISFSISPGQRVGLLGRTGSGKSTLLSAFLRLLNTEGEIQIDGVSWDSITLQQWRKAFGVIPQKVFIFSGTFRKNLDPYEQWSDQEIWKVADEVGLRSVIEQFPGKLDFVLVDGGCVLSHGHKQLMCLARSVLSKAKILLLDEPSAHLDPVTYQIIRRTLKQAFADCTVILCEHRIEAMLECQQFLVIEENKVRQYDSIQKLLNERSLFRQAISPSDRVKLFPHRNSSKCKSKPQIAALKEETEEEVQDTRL
T1 sequence (P13569 with tags, fused parts or gaps DEL508-508): as above

Take `COc1ccc([C@H]2CO[C@@](C(=O)NS(=O)(=O)c3cccc4nc(C)ccc34)(c3cc(C)ccc3OC)C2)cc1` [Example 45, (2R,4S)-2-(2-methoxy-5-methylphenyl)-4-(4-methoxyphenyl)-N-(2-methylquinoline-5-sulfonyl)oxolane-2-carboxamide]: the “Emax (% Dual)” value at F508del/F508del CFTR worked out at 229 % Dual. Further, the half-maximal effective concentration (EC50) at F508del/F508del CFTR was found to be 36.3 nM; at F508delCFTR (setting [1]) it was 440 nM; on F508delCFTR (setting [2]) it was 610 nM. Besides, the “Maximum % activity (with co-corrector)” value at F508delCFTR (with co-corrector 2 μM) amounted to 911%. Also, the Emax at F508delCFTR (without co-corrector) was found to be 386%.
In the case of `CCc1ccc(Oc2cccnc2OC)c([C@]2(C(=O)NS(=O)(=O)c3cccc4nc(C)ccc34)CCCO2)c1` [Example 24, (2S)-2-{5-ethyl-2-[(2-methoxypyridin-3-yl)oxy]phenyl}-N-(2-methylquinoline-5-sulfonyl)oxolane-2-carboxamide], the “Emax (% Dual)” value on F508del/F508del CFTR turned out to be 167 % Dual. The EC50 was greater than 800 nM at F508del/F508del CFTR, 2520 nM at F508delCFTR (setting [1]) and 3630 nM at F508delCFTR (setting [2]). For the same compound, the “Maximum % activity (with co-corrector)” value on F508delCFTR (with co-corrector 2 μM) is 449%. The Emax on F508delCFTR (without co-corrector) came to 141%.
In the case of `COc1ccccc1[C@@H]1CO[C@@](C(=O)NS(=O)(=O)c2cccc3nc(N)ccc23)(c2cc(C)ccc2OC)C1` [Example 40, (2R,4R)—N-(2-aminoquinoline-5-sulfonyl)-2-(2-methoxy-5-methylphenyl)-4-(2-methoxyphenyl)oxolane-2-carboxamide], the “Emax (% Dual)” value on F508del/F508del CFTR was 208 % Dual. The EC50 on F508del/F508del CFTR was determined as 2.6 nM; on F508delCFTR (setting [1]), 160 nM; on F508delCFTR (setting [2]), 440 nM. In addition, the Emax at F508delCFTR (without co-corrector) was determined as 705%.
For the compound `COc1ccc(C)cc1[C@@]1(C(=O)NS(=O)(=O)c2cccc3nc(C)ccc23)C[C@@H](C)CO1` [Example 19, (2R,4R)-2-(2-methoxy-5-methylphenyl)-4-methyl-N-(2-methylquinoline-5-sulfonyl)oxolane-2-carboxamide], the “Emax (% Dual)” value at F508del/F508del CFTR was determined as 253 % Dual. The figures for the EC50 at F508del/F508del CFTR, at F508delCFTR (setting [1]) and on F508delCFTR (setting [2]) were 33 nM, 720 nM and 880 nM, respectively. Also, on F508delCFTR (with co-corrector 2 μM), the “Maximum % activity (with co-corrector)” value stood at 850%. The Emax at F508delCFTR (without co-corrector) was 339%.
For `COc1ccc(C)cc1[C@@]1(C(=O)NS(=O)(=O)c2cccc3nc(C)ccc23)C[C@H](c2ccccc2)CO1` [Example 33, (2R,4R)-2-(2-methoxy-5-methylphenyl)-N-(2-methylquinoline-5-sulfonyl)-4-phenyloxolane-2-carboxamide], the “Emax (% Dual)” value on F508del/F508del CFTR is listed as 264 % Dual. Further, the figures for the EC50 on F508del/F508del CFTR, at F508delCFTR (setting [1]) and at F508delCFTR (setting [2]) were 20.1 nM, 1630 nM and 2300 nM, respectively. For the same compound, the Emax on F508delCFTR (without co-corrector) came to 756%.
Consider `COc1cccc([C@H]2CO[C@@](C(=O)NS(=O)(=O)c3cccc4nc(C)ccc34)(c3cc(C)ccc3OC)C2)c1` [Example 43, (2R,4S)-2-(2-methoxy-5-methylphenyl)-4-(3-methoxyphenyl)-N-(2-methylquinoline-5-sulfonyl)oxolane-2-carboxamide], for which, at F508del/F508del CFTR, the “Emax (% Dual)” value was determined as 216 % Dual and the EC50 is 59.9 nM.
Take `COc1ccc(C)cc1[C@]1(C(=O)NS(=O)(=O)c2cccc3nc(N)ccc23)CC(C)(C)CO1` [Example 34, (2S)—N-(2-aminoquinoline-5-sulfonyl)-2-(2-methoxy-5-methylphenyl)-4,4-dimethyloxolane-2-carboxamide]: at F508del/F508del CFTR, the “Emax (% Dual)” value came out at 284 % Dual and the EC50 was 34.6 nM.
On the same counts, the results for `COc1ccc(C)cc1[C@@]1(C(=O)NS(=O)(=O)c2cccc3nc(C)ccc23)C[C@@H](c2ccccc2)CO1` [Example 32, (2R,4S)-2-(2-methoxy-5-methylphenyl)-N-(2-methylquinoline-5-sulfonyl)-4-phenyloxolane-2-carboxamide] are 263 % Dual and 20.8 nM.
On to `CCc1ccc(Oc2cccnc2OC)c(C2(C(=O)NS(=O)(=O)c3cccc4nc(C)ccc34)CCCO2)c1` (centres unmarked) [Example 18, 2-{5-ethyl-2-[(2-methoxypyridin-3-yl)oxy]phenyl}-N-(2-methylquinoline-5-sulfonyl)oxolane-2-carboxamide], for which, on F508del/F508del CFTR, the “Emax (% Dual)” value is 152 % Dual and the EC50 is greater than 800 nM.
With `COc1ccc(C)cc1[C@@]1(C(=O)NS(=O)(=O)c2cccc3nc(N)ccc23)CC(C)(C)CO1` [Example 35, (2R)—N-(2-aminoquinoline-5-sulfonyl)-2-(2-methoxy-5-methylphenyl)-4,4-dimethyloxolane-2-carboxamide], at F508del/F508del CFTR, the “Emax (% Dual)” value stood at 248 % Dual and the EC50 came out at 443 nM.

What is called EC50 is the concentration giving half of the maximal effect.
